Test results as given in patent US9745335B2 (Blirt S.A., priority 2012, dated 2017).
In brackets after ≈: the same amount, converted by molar mass. Like-named read-outs stand apart in the source and are kept apart here.

Tests used:
[1] = tested on: Candida albicans ATCC 10231; test: antifungal activity in vitro, serial dilution in RPMI 1640; format: cell-based
Experimental: (§1) For the determination of antifungal activity in vitro we used method of serial dilution in buffered medium RPMI 1640, pH 7.0, in a 96-wells microplates, according to the standard procedure (National Committee for Clinical Laboratory Standards. Reference method for broth dilution antifungal susceptibility testing of yeast, approved standard, 2nd ed. M27-A2 vol. 22 Wayne, Pa., 2002). The optical density of cells suspension was measured using a microplates reader (Victor^3, Perkin-Elmer) at the wavelength λ=531 nm (A531). On the basis of obtained results the diagrams of relation between A531 values and concentration of examined compound were made.

[2] = tested on: Candida glabrata DSM 11226; test: as above; format: cell-based
Experimental: as §1

Candida krusei DSM 6128 = test: as above; format: cell-based
Experimental: as §1

[3] = tested on: Candida lusitaniae DSM 70102; test: as above; format: cell-based
Experimental: as §1

[4] = tested on: Candida tropicalis KKP 334; test: as above; format: cell-based
Experimental: as §1

[5] = tested on: Saccharomyces cerevisiae ATCC 9763; test: as above; format: cell-based; details: RPMI 1640, pH 7.0; for Antifungal activity IC50: Saccharomyces cerevisiae ATCC 9763 (first head over MIC and IC50); for Antifungal activity MIC: Saccharomyces cerevisiae ATCC 9763
Experimental: as §1

Human erythrocytes = test: hemotoxicity determination (hemolytic activity); format: cell-based
Experimental: The hemotoxicity determination was carried out by the serial dilutions method, according to the procedure described earlier (Slisz, M., et al., E., J Antibiot 57: 669-678 (2004). Human erythrocytes were suspended in the solution of saline to obtain a cell density of suspension 2×10^7/ml. Suitable amounts of diluted solutions of compounds were added to the cell suspension in tubes and were incubated at 37° C. for 30 minutes and then centrifuged (1700×g, 10 min, 4° C.). The concentration of hemoglobin in supernatant after centrifugation of erythrocytes suspension were determined by measuring the absorbance at wavelength λ=540 nm (A540). The maximum level of hemolysis was obtained after incubation of cells suspension in the presence of 0.1% Tritone X-100 (control sample). […] From these graphs, the EH50 values were read which are the interpolated concentrations of compound, for which the A540 value is exactly 50% of the A540 value measured for the control sample.

[6] = tested on: Aspergillus niger LOCK E201; test: antifungal activity in vitro, broader spectrum; format: cell-based
Experimental: as §1
(§2) Obtained results are presented below in tables 2A and 2B.

Candida albicans SC 5314 = test: antifungal activity in vitro, broader spectrum; format: cell-based
Experimental: as §1, §2

Candida arborea KKP 319 = test: antifungal activity in vitro, broader spectrum; format: cell-based
Experimental: as §1, §2

[7] = tested on: Candida dubliniensis CBS 7987; test: antifungal activity in vitro, broader spectrum; format: cell-based
Experimental: as §1, §2

[8] = tested on: Candida lipolytica KKP 322; test: antifungal activity in vitro, broader spectrum; format: cell-based
Experimental: as §1, §2

[9] = tested on: Candida parapsilosis DSM 5784; test: antifungal activity in vitro, broader spectrum; format: cell-based
Experimental: as §1, §2

[10] = tested on: Candida pseudotropicalis KKP 324; test: antifungal activity in vitro, broader spectrum; format: cell-based
Experimental: as §1, §2

[11] = tested on: Candida quilliermondii DSM 11947; test: antifungal activity in vitro, broader spectrum; format: cell-based
Experimental: as §1, §2

[12] = tested on: Candida stellatoidea CBS 1905; test: antifungal activity in vitro, broader spectrum; format: cell-based
Experimental: as §1, §2

[13] = tested on: Trichoderma viride LOCK E159; test: antifungal activity in vitro, broader spectrum; format: cell-based
Experimental: as §1, §2

[14] = tested on: Candida albicans clinical strain B3; test: antifungal activity against MDR fungal strains and parents; format: cell-based; details: C. albicans B3, fluconazole sensitive, parent strain for B4
Experimental: as §1

[15] = tested on: Candida albicans clinical strain B4 (CaMdr1p); test: as above; format: cell-based; details: C. albicans B4 (CaMdr1p), fluconazole-resistant
Experimental: as §1

[16] = tested on: Candida albicans clinical strain F2; test: as above; format: cell-based; details: C. albicans F2, fluconazole sensitive, parent strain for F5
Experimental: as §1

[17] = tested on: Candida albicans clinical strain F5 (CaMdr1p); test: as above; format: cell-based; details: C. albicans F5 (CaMdr1p), fluconazole-resistant
Experimental: as §1

[18] = tested on: Candida albicans clinical strain Gu4; test: as above; format: cell-based; details: C. albicans Gu4, fluconazole sensitive, parent strain for Gu5
Experimental: as §1

[19] = tested on: Candida albicans clinical strain Gu5 (CaCdr1p, CaCdr2p); test: as above; format: cell-based; details: C. albicans Gu5 (CaCdr1p, CaCdr2p), fluconazole-resistant
Experimental: as §1

[20] = tested on: Candida albicans strain 5674 (CaCdr1p, CaCdr2p); test: as above; format: cell-based; details: C. albicans 5674 (CaCdr1p, CaCdr2p)
Experimental: as §1

[21] = tested on: Candida albicans strain STY31; test: as above; format: cell-based; details: C. albicans STY31, 5674 derivative, deletion of CDR1 and CDR2
Experimental: as §1

[22] = tested on: Candida albicans strain STY7 (CaCdr1p); test: as above; format: cell-based; details: C. albicans STY7 (CaCdr1p), 5674 derivative, deletion of CDR2
Experimental: as §1

CCRF-CEM cells = test: cytotoxic activity against mammalian cells in tissue culture (MTT); format: cell-based, human
Experimental: (§3) All media contained 100 μg/ml of penicillin G and streptomycin. 24-wells microplates containing appropriate medium were inoculated with the cells in amount of 1.2×10^4 cells/well and allowed to stand overnight. Next, tested compounds as solution in dimethylsulfoxide (DMSO) were added in volume of 10 μl (serial 2× dilutions). To control well 10 μl of DMSO was added. Microplates with cell suspensions were incubated for 120 h at temperature 37° C. at atmosphere of 95%/5% CO2. After incubation, to all wells 200 μl of solution of 3-(4,5-dimethyltiazole-2-yl)-2,5-diphenylotetrazole bromide (MTT) in PBS (4 mg/ml) was added and plates were further incubated for 4 h at 37° C. Next, to dissolve crystals of formazane 1 ml of DMSO was added and absorption of solutions was measured at the wavelength λ=540 nm (A540), using a microplates reader (Victor^3, Perkin-Wallac). […] From these graphs IC50 values were read, that is concentration of tested compound in the presence at which A540 value is half of A540 value measured in the control sample.

HepG2 cells = test: as above; format: cell-based, human
Experimental: as §3

LLC-PK1 cells = test: as above; format: cell-based, pig
Experimental: as §3

Compound | Antifungal activity MIC [1] [µg/mL] | Antifungal activity MIC [2] [µg/mL] | Antifungal activity MIC (Candida krusei DSM 6128) [µg/mL] | Antifungal activity MIC [3] [µg/mL] | Antifungal activity MIC [4] [µg/mL] | Antifungal activity IC50 [5] [µg/mL] | Antifungal activity MIC [5] [µg/mL] | Hemotoxi EH50 (Human erythrocytes) [µg/mL] | Antifungal activity MIC [6] [µg/mL] | Antifungal activity MIC (Candida albicans SC 5314) [µg/mL] | Antifungal activity MIC (Candida arborea KKP 319) [µg/mL] | Antifungal activity MIC [7] [µg/mL] | Antifungal activity MIC [8] [µg/mL] | Antifungal activity MIC [9] [µg/mL] | Antifungal activity MIC [10] [µg/mL] | Antifungal activity MIC [11] [µg/mL] | Antifungal activity MIC [12] [µg/mL] | IC50 (cytotoxic activity) (CCRF-CEM cells) [µg/mL] | IC50 (cytotoxic activity) (HepG2 cells) [µg/mL] | IC50 (cytotoxic activity) (LLC-PK1 cells) [µg/mL] | further results
N-(4-N,N-diethylaminobenzyl)amphotericin B [Compound A19] | 1 | 2 | 2 | 1 | 1 | 0.53 | 1 | >100 | 1 | 0.5 | 2 | 0.5 | 2 | 2 | 0.5 | 2 | 1 | >100 | >100 | >100 | Antifungal activity MIC [13]: 4 µg/mL; Antifungal activity MIC [14]: 1 µg/mL; Antifungal activity MIC [15]: 2 µg/mL; Antifungal activity MIC [16]: 2 µg/mL; Antifungal activity MIC [17]: 2 µg/mL; Antifungal activity MIC [18]: 1 µg/mL; Antifungal activity MIC [19]: 1 µg/mL; Antifungal activity MIC [20]: 1 µg/mL; Antifungal activity MIC [21]: 1 µg/mL; Antifungal activity MIC [22]: 1 µg/mL
C[C@@H]1[C@H](O)[C@@H](C)/C=C/C=C/C=C/C=C/C=C/C=C/C=C/[C@H](O[C@@H]2O[C@H](C)[C@@H](O)[C@H](NC(=O)[C@@H](N)Cc3ccc([N+](=O)[O-])cc3)[C@@H]2O)C[C@@H]2O[C@](O)(C[C@@H](O)C[C@@H](O)[C@H](O)CC[C@@H](O)C[C@@H](O)CC(=O)O[C@H]1C)C[C@H](O)[C@H]2C(=O)O [Compound A33, N-L-p-nitrophenylalanylamphotericin B] | 2 | 4 | 4 | 2 | 4 | 1.39 | 2 | >100 | 1 | 1 | 2 | 1 | 1 | 1 | 1 | 1 | 1 | >100 | >100 | >100 | Antifungal activity MIC [13]: 4 µg/mL; Antifungal activity MIC [14]: 0.5 µg/mL; Antifungal activity MIC [15]: 1 µg/mL; Antifungal activity MIC [16]: 4 µg/mL; Antifungal activity MIC [17]: 8 µg/mL; Antifungal activity MIC [18]: 1 µg/mL; Antifungal activity MIC [19]: 1 µg/mL; Antifungal activity MIC [20]: 2 µg/mL; Antifungal activity MIC [21]: 0.5 µg/mL; Antifungal activity MIC [22]: 1 µg/mL
C[C@@H]1[C@H](O)[C@@H](C)/C=C/C=C/C=C/C=C/C=C/C=C/C=C/[C@H](O[C@@H]2O[C@H](C)[C@@H](O)[C@H](NC(=O)[C@H](N)CC(=O)OC(C)(C)C)[C@@H]2O)C[C@@H]2O[C@](O)(C[C@@H](O)C[C@@H](O)[C@H](O)CC[C@@H](O)C[C@@H](O)CC(=O)O[C@H]1C)C[C@H](O)[C@H]2C(=O)O [Compound A35, N-D-(O^β-tert-butyl)asparagylamphotericin B] | 4 | 4 | 4 | 2 | 4 | 1.40 | 4 | – | – | – | – | – | – | – | – | – | – | – | – | – | Hemotoxi EH50 (Human erythrocytes; human erythrocytes, 37° C., 30 minutes): >100 µg/mL; IC50 (cytotoxic activity) (CCRF-CEM cells; CCRF-CEM, 120 h, MTT): >100 µg/mL; IC50 (cytotoxic activity) (HepG2 cells; HepG2, 120 h, MTT): >100 µg/mL; IC50 (cytotoxic activity) (LLC-PK1 cells; LLC-PK1, 120 h, MTT): 70.7 ± 2.3 µg/mL (≈ 64.5 µM)
C[C@@H]1[C@H](O)[C@@H](C)/C=C/C=C/C=C/C=C/C=C/C=C/C=C/[C@H](O[C@@H]2O[C@H](C)[C@@H](O)[C@H](NC(=S)NCCN3CCOCC3)[C@@H]2O)C[C@@H]2O[C@](O)(C[C@@H](O)C[C@@H](O)[C@H](O)CC[C@@H](O)C[C@@H](O)CC(=O)O[C@H]1C)C[C@H](O)[C@H]2C(=O)O [Compound A24, N-{[3-(2-morpholin-1-yl)ethyl]thioureidyl}amphotericin B] | 2 | 4 | 4 | 2 | 2 | 1.13 | 2 | >100 | – | – | – | – | – | – | – | – | – | 80.9 ± 2.3 (≈ 73.8 µM) | >100 | >100 | –
C[C@@H]1[C@H](O)[C@@H](C)/C=C/C=C/C=C/C=C/C=C/C=C/C=C/[C@H](O[C@@H]2O[C@H](C)[C@@H](O)[C@H](NC(=S)NCCN(C)C)[C@@H]2O)C[C@@H]2O[C@](O)(C[C@@H](O)C[C@@H](O)[C@H](O)CC[C@@H](O)C[C@@H](O)CC(=O)O[C@H]1C)C[C@H](O)[C@H]2C(=O)O [Compound A28, N-{3-[2-(N,N-dimethylamino)ethyl]thioureidyl}amphotericin B] | 1 | 4 | 2 | 1 | 1 | 0.50 | 1 | 81.73 | – | – | – | – | – | – | – | – | – | >100 | >100 | >100 | –
